In test [1] the test system is ECa-109 cell line. The test is described as follows: cells. The following applies: Homo sapiens, ECa-109, read-out: GI.
Description: Cytotoxicity against human EC109 cells assessed as growth inhibition at 10 uM by MTT assay relative to control
Test [2] deals with MGC-803. Put plainly: cells. The following applies: Homo sapiens, MGC-803, read-out: GI.
Description: Cytotoxicity against human MGC803 cells assessed as growth inhibition at 10 uM by MTT assay relative to control
In test [3] the test system is A549. Put plainly: cells. The conditions noted are these: Homo sapiens, A549, read-out: GI.
Description: Cytotoxicity against human A549 cells assessed as growth inhibition at 10 uM by MTT assay relative to control
In test [4] the test system is PC-9. Put plainly: cells. The following applies: Homo sapiens, PC-9, read-out: GI.
Description: Cytotoxicity against human PC9 cells assessed as growth inhibition at 10 uM by MTT assay relative to control
Test [5] addresses Lysine-specific histone demethylase 1A (Homo sapiens, UniProt O60341).
Description: Inhibition of recombinant human LSD1 (157 to 852 residues) expressed in Escherichia coli BL21(DE3) using H3K4me2 as substrate preincubated for 1 hr followed by substrate addition by fluorescence assay
Test [6] has as its system PC-9. The test is described as follows: cells. The following applies: Homo sapiens.
Description: Cytotoxicity against human PC9 cells assessed as growth inhibition by MTT assay
Test [7] relates to A549. Put plainly: cells. The conditions noted are these: Homo sapiens.
Description: Cytotoxicity against human A549 cells assessed as growth inhibition by MTT assay
Test [8] deals with ECa-109 cell line. Put plainly: cells. The conditions noted are these: Homo sapiens.
Description: Cytotoxicity against human EC109 cells assessed as growth inhibition by MTT assay
Test [9] relates to MGC-803. The test is described as follows: cells. The conditions noted are these: Homo sapiens.
Description: Cytotoxicity against human MGC803 cells assessed as growth inhibition by MTT assay

We go through 30 molecules from ChEMBL document CHEMBL4041507, “Design, synthesis and biological evaluation of [1,2,4]triazolo[1,5-a]pyrimidines as potent lysine specific demethylase 1 (LSD1/KDM1A) inhibitors” (Eur J Med Chem, 2017).

On to `Cc1ccc(Nc2cc(C)nc3nc(SCc4nc5ccccc5[nH]4)nn23)cc1`, for which the inhibition of growth at 10 µM in the test on ECa-109 cell line [1] came to 43.1%; with MGC-803 [2], 22.9%; in the test with A549 [3], 35.1%; in the test on PC-9 [4], 36.9%. Further, in test [5], the 50% inhibitory concentration (IC50) (in general, the concentration needed to halve the response being measured) is more than 10 µM.
As to `Cc1cc(NNC(=O)c2cnccn2)n2nc(SCc3ccccc3)nc2n1`, the inhibition of growth at 10 µM with ECa-109 cell line [1] stood at 23.3%; with MGC-803 [2], 35.3%; in the test with A549 [3], 40.9%; in the test on PC-9 [4], 63.2%. The IC50 with PC-9 [6] came to 12.7 µM; in [5], 1.19 µM.
In the case of `Cc1cc(N2CCOCC2)n2nc(SCc3ccccc3)nc2n1`, the inhibition of growth at 10 µM amounted to 10.6% in the test on ECa-109 cell line [1], 31% with MGC-803 [2], 45.4% in the test on A549 [3] and 27.3% with PC-9 [4]. The half-maximal inhibitory concentration (IC50) in [5] was more than 10 µM.
`Cc1ccc(Nc2cc(C)nc3nc(SCc4ccccc4)nn23)cc1`: the inhibition of growth at 10 µM in the test with ECa-109 cell line [1] was determined as 44.7%; with MGC-803 [2] it was 26%; in the test with A549 [3] it was 33.7%; with PC-9 [4], 30.2%. In addition, in [5], the IC50 was more than 10 µM.
For `Cc1cc(Nc2ccc(C(=O)O)cc2)n2nc(SCc3nc4ccccc4[nH]3)nc2n1`, the inhibition of growth at 10 µM in the test with ECa-109 cell line [1] was 4.5%; in the test with MGC-803 [2], 0.4%; with A549 [3], 5.6%; in the test on PC-9 [4], 11.9%. This molecule showed a 50% inhibitory concentration (IC50) in test [5] of more than 10 µM.
For the molecule `CCC1(c2ccc(Nc3cc(C)nc4nc(SCc5nc6ccccc6[nH]5)nn34)cc2)CCC(=O)NC1=O` (stereo unspecified), the inhibition of growth at 10 µM in the test with ECa-109 cell line [1] amounted to 38.2%; in the test with MGC-803 [2] it was 1.1%; in the test on A549 [3], 49.2%; with PC-9 [4], 47.9%. Further, the IC50 with PC-9 [6] is 12.2 µM; in the test with A549 [7], 17.5 µM; in [5], more than 10 µM.
Take `Cc1cc(NCCCN2CCOCC2)n2nc(SCc3ccccc3)nc2n1`: the inhibition of growth at 10 µM with ECa-109 cell line [1] was 9.3%; in the test with MGC-803 [2], 24.9%; in the test on A549 [3] it was 49.2%; in the test with PC-9 [4] it was 51.9%. Besides, the IC50 with PC-9 [6] is 15 µM; in the test on A549 [7], 17 µM; in [5], more than 10 µM.
As for `O=C(O)c1ccc(CN2CCC(CN[C@@H]3C[C@H]3c3ccccc3)CC2)cc1` [GSK2879552], the 50% inhibitory concentration (IC50) is 0.024 µM in test [5], more than 50 µM in the test with ECa-109 cell line [8] and more than 50 µM in the test with MGC-803 [9].
As to `Cc1cc(NCCc2c[nH]c3ccccc23)n2nc(SCc3ccccc3)nc2n1`, the inhibition of growth at 10 µM amounted to 7% in the test on ECa-109 cell line [1], 34.2% with MGC-803 [2], 43.9% in the test with A549 [3] and 24% in the test on PC-9 [4]. The molecule also displayed an IC50 in test [5] of more than 10 µM.
As for `Cc1cc(Nc2ccc(Br)cc2)n2nc(SCc3nc4ccccc4[nH]3)nc2n1`, the inhibition of growth at 10 µM in the test with ECa-109 cell line [1] turned out to be 43.8%; in the test with MGC-803 [2] it was 36.7%; in the test with A549 [3], 35.2%; with PC-9 [4] it was 36.4%. The same molecule yielded an IC50 in [5] of more than 10 µM.
Take `Cc1cc(Nc2ccc(C(=O)O)cc2)n2nc(SCc3ccccc3)nc2n1`: the inhibition of growth at 10 µM worked out at 14.3% in the test with ECa-109 cell line [1], 26.7% in the test with MGC-803 [2], 34.6% with A549 [3] and 30.7% in the test on PC-9 [4]. For the same molecule, the IC50 in test [5] was more than 10 µM.
Regarding `Cc1cc(Nc2ccccc2)n2nc(SCc3nc4ccccc4[nH]3)nc2n1`, the inhibition of growth at 10 µM with ECa-109 cell line [1] turned out to be 39.9%; with MGC-803 [2] it was 17.9%; with A549 [3], 38%; with PC-9 [4], 31.6%. The molecule also displayed an IC50 in [5] of more than 10 µM.
For `Cc1cc(NNC(=O)c2cnccn2)n2nc(SCc3nc4ccccc4[nH]3)nc2n1`, the inhibition of growth at 10 µM in the test on ECa-109 cell line [1] was 35.5%; in the test on MGC-803 [2], 8.6%; with A549 [3] it was 65.2%; with PC-9 [4], 52.5%. Further, the half-inhibitory concentration (IC50) in the test with PC-9 [6] turned out to be 12.3 µM; in the test with A549 [7] it was 10.3 µM; in [5] it was 0.557 µM.
Regarding `Cc1cc(Nc2ccc(F)cc2)n2nc(SCc3nc4ccccc4[nH]3)nc2n1`, the inhibition of growth at 10 µM in the test on ECa-109 cell line [1] is 39.7%; in the test on MGC-803 [2] it was 19.2%; in the test with A549 [3], 36.6%; with PC-9 [4], 27.6%. The molecule also showed a 50% inhibitory concentration (IC50) in [5] of more than 10 µM.
With `Cc1cc(NCCCO)n2nc(SCc3ccccc3)nc2n1`, the inhibition of growth at 10 µM is 6.3% with ECa-109 cell line [1], 33.3% in the test on MGC-803 [2], 53.7% in the test on A549 [3] and 51.4% with PC-9 [4]. Further, the IC50 with PC-9 [6] is 10.7 µM; in the test with A549 [7] it was 8.85 µM; in [5] it was more than 10 µM.
As to `Cc1cc(Nc2ccc(C#N)cc2)n2nc(SCc3nc4ccccc4[nH]3)nc2n1`, the inhibition of growth at 10 µM stood at 26.3% with ECa-109 cell line [1], 19.3% with MGC-803 [2], 52.3% in the test with A549 [3] and 41.9% in the test on PC-9 [4]. Further, the figures for the IC50 (in the test on A549 [7]; in test [5]) were 13.9 µM and more than 10 µM, respectively.
In the case of `COc1cc(Nc2cc(C)nc3nc(SCc4ccccc4)nn23)cc(OC)c1OC`, the inhibition of growth at 10 µM came to 41.6% in the test with ECa-109 cell line [1], 32.8% with MGC-803 [2], 37.9% in the test on A549 [3] and 13.5% in the test with PC-9 [4]. The half-inhibitory concentration (IC50) in test [5] was more than 10 µM.
Turning to `Cc1cc(N2CCC(N3CCCCC3)CC2)n2nc(SCc3ccccc3)nc2n1`, the inhibition of growth at 10 µM in the test on ECa-109 cell line [1] came to 0.3%; with MGC-803 [2], 32.8%; in the test with A549 [3] it was 56.5%; in the test with PC-9 [4], 35.6%. The 50% inhibitory concentration (IC50) with A549 [7] is 8.87 µM; in test [5] it was more than 10 µM.
`Cc1cc(Nc2ccc(F)cc2)n2nc(SCc3ccccc3)nc2n1`: the inhibition of growth at 10 µM was 37.6% with ECa-109 cell line [1], 19.7% in the test on MGC-803 [2], 41.8% with A549 [3] and 43.5% in the test with PC-9 [4]. The IC50 in [5] was more than 10 µM.
Regarding `Cc1cc(N2CCN(CCO)CC2)n2nc(SCc3ccccc3)nc2n1`, the inhibition of growth at 10 µM with ECa-109 cell line [1] came out at 5.9%; in the test with MGC-803 [2], 23.8%; with A549 [3], 42.1%; in the test on PC-9 [4] it was 14.9%. In addition, the IC50 in test [5] was more than 10 µM.
For `Cc1cc(Nc2ccc(Cl)cc2)n2nc(SCc3nc4ccccc4[nH]3)nc2n1`, the inhibition of growth at 10 µM in the test with ECa-109 cell line [1] turned out to be 41.2%; with MGC-803 [2], 16.8%; with A549 [3], 34.9%; with PC-9 [4], 33.2%. This molecule also returned an IC50 in test [5] of more than 10 µM.
As for `Cc1cc(Nc2ccccc2)n2nc(SCc3ccccc3)nc2n1`, the inhibition of growth at 10 µM with ECa-109 cell line [1] stood at 12.9%; in the test with MGC-803 [2], 35%; in the test on A549 [3] it was 50.2%; in the test on PC-9 [4], 40.2%. The values for the IC50 (in the test on A549 [7]; in test [5]) were 16.4 µM and more than 10 µM, respectively.
With `O=c1[nH]cc(F)c(=O)[nH]1` [FLUOROURACIL], the IC50 in the test with PC-9 [6] was determined as 1.99 µM; with A549 [7], 14 µM; in the test with ECa-109 cell line [8], 26 µM; in the test on MGC-803 [9], 10.1 µM.
For the molecule `Cc1cc(OCCN2CCCC2)n2nc(SCc3ccccc3)nc2n1`, the inhibition of growth at 10 µM in the test with ECa-109 cell line [1] was determined as 11.4%; with MGC-803 [2] it was 28.8%; in the test with A549 [3], 49.8%; with PC-9 [4], 43.6%. Moreover, the IC50 in the test on A549 [7] was 22.8 µM; in test [5] it was more than 10 µM.
As to `Cc1cc(NCCCn2ccnc2)n2nc(SCc3ccccc3)nc2n1`, the inhibition of growth at 10 µM turned out to be 12.8% in the test with ECa-109 cell line [1], 26.2% with MGC-803 [2], 50.2% with A549 [3] and 47.7% in the test on PC-9 [4]. Also, the IC50 in the test with PC-9 [6] is 12.3 µM; with A549 [7], 16.1 µM; in [5], more than 10 µM.
On to `Cc1cc(Nc2cccc3c2CN(C2CCC(=O)NC2=O)C3=O)n2nc(SCc3nc4ccccc4[nH]3)nc2n1` (stereo unspecified), for which the inhibition of growth at 10 µM came to 32.2% with ECa-109 cell line [1], 11.4% in the test with MGC-803 [2], 48.2% in the test on A549 [3] and 52.4% in the test with PC-9 [4]. The figures for the IC50 (in the test with PC-9 [6]; with A549 [7]; in test [5]) were 15 µM, 19.8 µM and more than 10 µM, respectively.
As for `Cc1cc(Nc2ccc(C(=O)/C=C/c3cccs3)cc2)n2nc(SCc3nc4ccccc4[nH]3)nc2n1`, the inhibition of growth at 10 µM with ECa-109 cell line [1] came to 38.3%; in the test with MGC-803 [2], 29.6%; in the test with A549 [3], 51.1%; in the test on PC-9 [4] it was 40.4%. In addition, the IC50 in the test with PC-9 [6] was 11 µM; with A549 [7] it was 9.9 µM; in [5], more than 10 µM; in the test with ECa-109 cell line [8] it was 10.6 µM; in the test with MGC-803 [9], 7.88 µM.
For `Cc1cc(N2CCNCC2)n2nc(SCc3ccccc3)nc2n1`, the inhibition of growth at 10 µM in the test on ECa-109 cell line [1] is 23.9%; in the test with MGC-803 [2], 32.4%; in the test on A549 [3], 41.4%; with PC-9 [4], 29.3%. The molecule further returned a half-maximal inhibitory concentration (IC50) in test [5] of more than 10 µM.
`COc1cc(Nc2cc(C)nc3nc(SCc4nc5ccccc5[nH]4)nn23)cc(OC)c1OC`: the inhibition of growth at 10 µM in the test with ECa-109 cell line [1] turned out to be 34.1%; with MGC-803 [2] it was 28%; in the test on A549 [3], 52.4%; with PC-9 [4], 42.9%. The IC50 is 18 µM in the test on A549 [7] and more than 10 µM in test [5].
With `Cc1cc(N)n2nc(SCc3ccccc3)nc2n1`, the inhibition of growth at 10 µM turned out to be 4.7% in the test on ECa-109 cell line [1], 32.3% in the test on MGC-803 [2], 57.3% with A549 [3] and 48.3% with PC-9 [4]. Further, the IC50 is 8.14 µM with PC-9 [6], 9.74 µM in the test with A549 [7] and more than 10 µM in [5].
